The target in one experiment is hA3AR (Homo sapiens (Human), UniProt P0DMS8). Kind of experiment: Radioligand binding at hA3AR, CHO cell membranes, [125I]I-AB-MECA.
For another experiment, the target named is hA2AAR (Homo sapiens (Human), UniProt P29274). Nature of the experiment: Radioligand binding at hA2AAR, HEK293 cell membranes, [3H]CGS21680. Conditions: for inhibition at 10 µM: read-out: hA2AAR % inhibition; for hA2AAR % inhibition: inhibition of binding at 10 μM.
In the next experiment the target is hA1AR (Homo sapiens (Human), UniProt P30542). Kind of experiment: Radioligand binding at hA1AR, CHO cell membranes, [3H]R-PIA. Conditions: for inhibition at 10 µM: read-out: hA1AR % inhibition; for hA1AR % inhibition: inhibition of binding at 10 μM.
The test system of experiment [1] is chronic constriction injury model of neuropathic pain. Nature of the experiment: CCI model of neuropathic pain, reversal of mechano-allodynia. The class given is in vivo, mice. Conditions: for Time of peak protection / Max. effect Emax (% ± SEM) / Effect at 3 h (% ± SEM): 3 μmol/kg p.o., mice; for Time of peak protection / Max. effect Emax (% ± SEM): ipsilateral hind paw; for Efficacy in reversing NP in vivo (of full reversal at peak effect): CCI model.

A value given as a limit tells only on which side of the number the result lay.

Chain of hA3AR (P0DMS8 whole entry): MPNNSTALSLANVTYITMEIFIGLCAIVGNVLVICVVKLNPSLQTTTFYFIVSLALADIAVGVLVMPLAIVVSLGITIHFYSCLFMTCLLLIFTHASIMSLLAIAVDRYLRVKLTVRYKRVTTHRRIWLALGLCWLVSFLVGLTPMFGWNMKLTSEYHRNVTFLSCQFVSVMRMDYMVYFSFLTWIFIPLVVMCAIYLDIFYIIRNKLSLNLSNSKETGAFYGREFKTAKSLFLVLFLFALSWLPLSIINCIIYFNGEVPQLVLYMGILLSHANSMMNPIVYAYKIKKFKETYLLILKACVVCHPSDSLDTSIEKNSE
Chain of hA2AAR (P29274 whole entry): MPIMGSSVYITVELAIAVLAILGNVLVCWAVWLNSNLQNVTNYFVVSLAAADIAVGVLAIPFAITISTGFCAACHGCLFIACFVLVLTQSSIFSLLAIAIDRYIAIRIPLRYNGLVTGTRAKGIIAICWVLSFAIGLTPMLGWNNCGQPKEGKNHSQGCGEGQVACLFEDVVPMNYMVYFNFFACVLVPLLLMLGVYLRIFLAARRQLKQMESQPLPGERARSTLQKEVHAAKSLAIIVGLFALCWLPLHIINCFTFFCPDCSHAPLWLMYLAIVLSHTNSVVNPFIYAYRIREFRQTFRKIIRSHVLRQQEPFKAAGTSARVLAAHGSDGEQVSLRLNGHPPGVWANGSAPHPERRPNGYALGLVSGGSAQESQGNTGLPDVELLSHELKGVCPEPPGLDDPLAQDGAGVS
Chain of hA1AR (P30542 whole entry): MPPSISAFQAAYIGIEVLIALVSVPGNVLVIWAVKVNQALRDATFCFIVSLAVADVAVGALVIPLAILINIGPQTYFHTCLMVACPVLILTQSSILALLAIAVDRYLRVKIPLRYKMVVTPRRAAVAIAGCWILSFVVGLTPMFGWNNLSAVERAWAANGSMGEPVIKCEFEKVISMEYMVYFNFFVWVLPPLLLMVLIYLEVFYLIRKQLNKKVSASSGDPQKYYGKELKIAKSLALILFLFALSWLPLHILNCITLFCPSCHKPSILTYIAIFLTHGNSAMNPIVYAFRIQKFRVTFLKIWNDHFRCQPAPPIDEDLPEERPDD

A word on the Ki: it is a measure of affinity in units of concentration, obtained from inhibition or displacement. Read a high Ki as a looser hold on the target. With `CNC(=O)[C@@]12C[C@@H]1[C@@H](n1cnc3c(NC4CC4c4cccc(C)c4)nc(C#Cc4ccccc4)nc31)[C@H](O)[C@@H]2O` (mixture of isomers) [Compound 22, (1S,2R,3S,4R,5S)-2,3-Dihydroxy-N-methyl-4-(2-(phenylethynyl)-6-((2-(m-tolyl)cyclopropyl)amino)-9H-purin-9-yl)bicyclo[3.1.0]hexane-1-carboxamide], the Ki at hA3AR came to 17.6 ± 1.3 nM.

Broadly, the inhibition is the percentage by which the read-out fell short of the control. With `CNC(=O)[C@@]12C[C@@H]1[C@@H](n1cnc3c(NC4CC4c4cccc(F)c4)nc(C#Cc4ccccc4)nc31)[C@H](O)[C@@H]2O` (mixture of isomers) [Compound 23, (1S,2R,3S,4R,5S)-4-(6-((2-(3-Fluorophenyl)cyclopropyl)amino)-2-(phenylethynyl)-9H-purin-9-yl)-2,3-dihydroxy-N-methylbicyclo[3.1.0]hexane-1-carboxamide], the inhibition at 10 µM at hA2AAR was found to be 1%. Further, the Ki on hA3AR was 16.5 ± 1.9 nM.

`CNC(=O)[C@@]12C[C@@H]1[C@@H](n1cnc3c(NC4CC4c4cccc(Cl)c4)nc(C#Cc4ccccc4)nc31)[C@H](O)[C@@H]2O` (mixture of isomers) [Compound 24, (1S,2R,3S,4R,5S)-4-(6-((2-(3-Chlorophenyl)cyclopropyl)amino)-2-(phenylethynyl)-9H-purin-9-yl)-2,3-dihydroxy-N-methylbicyclo[3.1.0]hexane-1-carboxamide] had a Ki on hA3AR of 11.2 ± 4.2 nM.

Compound `CNC(=O)[C@@]12C[C@@H]1[C@@H](n1cnc3c(NC4CC4c4cccc(Br)c4)nc(C#Cc4ccccc4)nc31)[C@H](O)[C@@H]2O` (mixture of isomers) [Compound 25, (1S,2R,3S,4R,5S)-4-(6-((2-(3-Bromophenyl)cyclopropyl)amino)-2-(phenylethynyl)-9H-purin-9-yl)-2,3-dihydroxy-N-methylbicyclo[3.1.0]hexane-1-carboxamide] returned a Ki on hA3AR of 14.5 ± 1 nM.

In the case of `CNC(=O)[C@@]12C[C@@H]1[C@@H](n1cnc3c(NC4CC4c4ccc(F)c(F)c4)nc(C#Cc4ccccc4)nc31)[C@H](O)[C@@H]2O` (mixture of isomers) [Compound 26, (1 S,2R,3S,4R,5S)-4-(6-((2-(3,4-Difluorophenyl)cyclopropyl)amino)-2-(phenylethynyl)-9H-purin-9-yl)-2,3-dihydroxy-N-methylbicyclo[3.1.0]hexane-1-carboxamide], the affinity at hA3AR corresponds to a Ki of 20.2 ± 2.1 nM.

Take `CNC(=O)[C@@]12C[C@@H]1[C@@H](n1cnc3c(NC)nc(C#Cc4cccc(C(F)(F)F)c4)nc31)C(O)C2O` (stereo in doubt) [Compound 14, (1 S,2S,3R,4R,5S)-2,3-Dihydroxy-N-methyl-4-(6-(methylamino)-2-((3-(trifluoromethyl)phenyl)ethynyl)-9H-purin-9-yl)bicyclo[3.1.0]hexane-1-carboxamide]: the inhibition at 10 µM is 10% at hA1AR and 12 ± 6% on hA2AAR. The “Time of peak protection” value in experiment [1] was in the range of 0.5 to 1 h.

For `CNC(=O)[C@@]12C[C@@H]1[C@@H](n1cnc3c(C)nc(C#Cc4ccc(C(C)(C)C)cc4)nc31)C(O)C2O` (stereo in doubt) [Compound 41, (1S,2S,3R,4R,5S)-4-(2-((4-(tert-butyl)phenyl)ethynyl)-6-methyl-9H-purin-9-yl)-2,3-dihydroxy-N-methylbicyclo[3.1.0]hexane-1-carboxamide], the inhibition at 10 µM is 15 ± 6% on hA1AR and 34 ± 7% on hA2AAR.

`CNC(=O)[C@@]12C[C@@H]1[C@@H](n1cnc3c(NC)nc(C#Cc4cccnn4)nc31)[C@H](O)[C@@H]2O` [Compound 10, (1S,2R,3S,4R,5S)-2,3-Dihydroxy-N-methyl-4-(6-(methylamino)-2-(pyridazin-3-ylethynyl)-9H-purin-9-yl)bicyclo[3.1.0]hexane-1-carboxamide]: the inhibition at 10 µM on hA1AR amounted to 11%. At hA2AAR, the inhibition at 10 µM amounted to 13 ± 8%. Moreover, in experiment [1], the “Time of peak protection” value is 0.5 h and the “Efficacy in reversing NP in vivo (of full reversal at peak effect)” value (from here on “Efficacy in reversing NP in vivo”) is recorded as “less than full efficacy”.

As to `CNC(=O)[C@@]12C[C@@H]1[C@@H](n1cnc3c(NC)nc(C#Cc4cccnc4)nc31)[C@H](O)[C@@H]2O` [Compound 15, (1S,2R,3S,4R,5S)-2,3-Dihydroxy-N-methyl-4-(6-(methylamino)-2-(pyridin-3-ylethynyl)-9H-purin-9-yl)bicyclo[3.1.0]hexane-1-carboxamide], the inhibition at 10 µM at hA1AR was found to be 16 ± 10%. The inhibition at 10 µM at hA2AAR stood at 12 ± 6%. Besides, in experiment [1], the “Time of peak protection” value lay within 0.5 to 2 h and the “Efficacy in reversing NP in vivo” value is on record as “low efficacy”.

`CNC(=O)[C@@]12C[C@@H]1[C@@H](n1cnc3c(NC)nc(C#CC4CCCCC4)nc31)[C@H](O)[C@@H]2O` [Compound 19, (1S,2R,3S,4R,5S)-4-(2-(Cyclohexylethynyl)-6-(methylamino)-9H-purin-9-yl)-2,3-dihydroxy-N-methylbicyclo[3.1.0]hexane-1-carboxamide]: the inhibition at 10 µM at hA1AR worked out at 15%. Also, on hA2AAR, the inhibition at 10 µM was determined as 45 ± 6%. Besides, in experiment [1], the “Max. effect Emax (% ± SEM)” value is recorded as 64.1 ± 10.5%, the “Time of peak protection” value lay within 1 to 2 h and the “Efficacy in reversing NP in vivo” value is listed as 60-70%.

For `CNC(=O)[C@@]12C[C@@H]1[C@@H](n1cnc3c(NC)nc(C#CC4CC4)nc31)[C@H](O)[C@@H]2O` [Compound 20, (1S,2R,3S,4R,5S)-4-(2-(Cyclopropylethynyl)-6-(methylamino)-9H-purin-9-yl)-2,3-dihydroxy-N-methylbicyclo[3.1.0]hexane-1-carboxamide], the inhibition at 10 µM came to 38% at hA1AR and 15 ± 10% on hA2AAR. For the same compound, in experiment [1], the “Efficacy in reversing NP in vivo” value is reported as 60-70%.

`CNC(=O)[C@@]12C[C@@H]1[C@@H](n1cnc3c(NC)nc(C#Cc4cc(C)c(C)o4)nc31)[C@H](O)[C@@H]2O` [Compound 29, (1S,2R,3S,4R,5S)-4-(2-((4,5-Dimethylfuran-2-yl)ethynyl)-6-(methylamino)-9H-purin-9-yl)-2,3-dihydroxy-N-methylbicyclo[3.1.0]hexane-1-carboxamide]: the results for the inhibition at 10 µM at hA1AR and on hA2AAR were 15% and 21 ± 3%, respectively. The “Time of peak protection” value in experiment [1] is recorded as 1 h.

Take `CNC(=O)[C@@]12C[C@@H]1[C@@H](n1cnc3c(NC)nc(C#Cc4ccc(CO)cc4)nc31)[C@H](O)[C@@H]2O` [Compound 31, (1S,2R,3S,4R,5S)-2,3-Dihydroxy-4-(2-((4-(hydroxymethyl)phenyl)ethynyl)-6-(methylamino)-9H-purin-9-yl)-N-methylbicyclo[3.1.0]hexane-1-carboxamide]: the values for the inhibition at 10 µM at hA1AR and at hA2AAR were 16% and 11 ± 7%, respectively. Besides, in experiment [1], the “Time of peak protection” value was 1 h.

`CNC(=O)[C@@]12C[C@@H]1[C@@H](n1cnc3c(NC)nc(C#Cc4cc5ccccc5o4)nc31)[C@H](O)[C@@H]2O` [Compound 33, (1S,2R,3S,4R,5S)-4-(2-(Benzofuran-2-ylethynyl)-6-(methylamino)-9H-purin-9-yl)-2,3-dihydroxy-N-methylbicyclo[3.1.0]hexane-1-carboxamide]: the inhibition at 10 µM at hA1AR amounted to 13%; on hA2AAR, 18 ± 3%. For the same compound, the “Max. effect Emax (% ± SEM)” value in experiment [1] is recorded as 87.4 ± 0.6%. Also, in experiment [1], the “Time of peak protection” value was 1 h.

On to `CNC(=O)[C@]12CC1[C@@H](n1cnc3c(NC)nc(-n4cc(-c5ccc(F)c(F)c5)nn4)nc31)[C@H](O)C2O` (some centres unmarked) [Compound 102], for which the hA2AAR % inhibition on hA2AAR worked out at 39 ± 4%. In addition, in experiment [1], the “Effect at 3 h (% ± SEM)” value came to 8 ± 8%, the “Max. effect Emax (% ± SEM)” value stood at 55 ± 6% and the “Time of peak protection” value is reported as 1 h.

Take `CNC(=O)[C@]12CC1[C@@H](n1cnc3c(NC)nc(N=[N+]=[N-])nc31)[C@H](O)C2O` (some centres unmarked) [Compound 113]: at hA2AAR, the hA2AAR % inhibition was found to be 1 ± 1%. Besides, the Ki at hA3AR was 0.54 ± 0.1 nM.

Take `CNC(=O)[C@]12CC1[C@@H](n1cnc3c(NC)nc(I)nc31)[C@H](O)C2O` (some centres unmarked) [Compound 114]: the Ki on hA3AR stood at 1.91 ± 0.85 nM.

Take `CNC(=O)[C@]12CC1[C@@H](n1cnc3c(NC4CCC4)nc(N=[N+]=[N-])nc31)[C@H](O)C2O` (some centres unmarked) [Compound 115]: the hA2AAR % inhibition on hA2AAR came to 46%. Besides, at hA3AR, affinity was put at a Ki of 0.85 ± 0.1 nM.

For `CNC(=O)[C@]12CC1[C@@H](n1cnc3c(NCc4cccc(Cl)c4)nc(I)nc31)[C@H](O)C2O` (some centres unmarked) [Compound 116], the inhibition constant (Ki) on hA2AAR is > 10000 nM.

As to `CNC(=O)[C@]12CC1[C@@H](n1cnc3c(NC4CCC4)nc(I)nc31)[C@H](O)C2O` (some centres unmarked) [Compound 118], the Ki at hA2AAR is > 10000 nM; on hA3AR, 1.53 ± 0.45 nM.

In turn, `CNC(=O)[C@]12CC1[C@@H](n1cnc3c(NCc4cccc(Cl)c4)nc(-n4cc(-c5ccc(Cl)s5)nn4)nc31)[C@H](O)C2O` (some centres unmarked) [Compound 120] registered an inhibitory constant (Ki) at hA3AR of 11.7 nM. For the same compound, in experiment [1], the “Effect at 3 h (% ± SEM)” value is 100%, the “Max. effect Emax (% ± SEM)” value stood at 100% and the “Time of peak protection” value was 0.5 to 4 h.

Consider `CCNc1nc(I)nc2c1ncn2[C@@H]1C2C[C@]2(C(=O)NC)C(O)[C@H]1O` (some centres unmarked) [Compound 122], for which the hA2AAR % inhibition at hA2AAR came to 11 ± 7%. The compound further had a Ki on hA3AR of 1.22 ± 0.21 nM.

Turning to `CNC(=O)[C@]12CC1[C@@H](n1cnc3c(NC4CCC4)nc(-n4cc(-c5ccc(Cl)s5)nn4)nc31)[C@H](O)C2O` (some centres unmarked) [Compound 125], the Ki at hA3AR turned out to be 7.13 nM. Moreover, in experiment [1], the “Effect at 3 h (% ± SEM)” value amounted to 90%, the “Max. effect Emax (% ± SEM)” value turned out to be 100% and the “Time of peak protection” value was in the range of 0.5 to 3 h.

In the case of `CNC(=O)[C@]12CC1[C@@H](n1cnc3c(NC)nc(C#Cc4ccccc4)nc31)[C@H](O)C2O` (some centres unmarked) [Compound 400, reference compound], the hA1AR % inhibition entry at hA1AR was “(18% ± 8%)”. The hA2AAR % inhibition result at hA2AAR is recorded as “(14% ± 7%)”. Also, in experiment [1], the “Effect at 3 h (% ± SEM)” value came to 5.0 ± 5.0%, the “Max. effect Emax (% ± SEM)” value was determined as 44.1 ± 9.9%, the “Time of peak protection” value lay within 0.5 to 1 h and the “Efficacy in reversing NP in vivo” value is recorded as ~30%.

Turning to `CNC(=O)[C@]12CC1[C@@H](n1cnc3c(NC)nc(C#Cc4ccccn4)nc31)[C@H](O)C2O` (some centres unmarked) [Compound 401, reference compound], the hA1AR % inhibition result on hA1AR was “(13% ± 8%)”. For the same compound, the hA2AAR % inhibition result on hA2AAR is “(13% ± 4%)”. For the same compound, the “Efficacy in reversing NP in vivo” value in experiment [1] is reported as “low efficacy”.

These data come from patent publication US10577368B2 (The United States of America, as represented by the …, priority 2013, dated 2020).
